Results as given in paper PMC3544269 (2012).

How the values were obtained:
[1] = tested on: #13_83 (group 3 representative) (DNA, aptamer) ATACCAGCTTATTCAATTGGGGAGATCTTGAGGCTCGATCGATAGTAGCTGTGACAGTCTACGTTTTATGGTATGCGGGTAGATAGTAAGTGCAATCT; assay: fluorescent aptamer release from capture-oligo magnetic beads; settings: 100 mM NaCl, 5 mM KCl, 2 mM MgCl2, 1 mM CaCl2; 20 mM Tris-HCl pH 7.6, 21 °C; capture oligo i-ODN2Sp; 1 mM compound; threshold 1 pmol eluted
[2] = tested on: #3_7 (group 1) (DNA, aptamer) ATACCAGCTTATTCAATTGGTGGTAGGATGGGCTCGATCGAGGTCTTCAGTCGGCTCGGTTTAGTTTATGTTCTCCTGTAGATAGTAAGTGCAATCT; assay: as above; settings: 100 mM NaCl, 5 mM KCl, 2 mM MgCl2, 1 mM CaCl2; 20 mM Tris-HCl pH 7.6, 21 °C; capture oligo i-ODN2Sp; 1 mM compound; threshold 1 pmol eluted
[3] = tested on: #3_18 (group 7) (DNA, aptamer) ATACCAGCTTATTCAATTAGCATGGTGCTGAGGCTTGATCTGGAGGTCGTGAACGAAAATTGGTCGTTTAGTTGGCTCGTAGATAGTAAGTGCAATCT; assay: as above; settings: 100 mM NaCl, 5 mM KCl, 2 mM MgCl2, 1 mM CaCl2; 20 mM Tris-HCl pH 7.6, 21 °C; capture oligo i-ODN2Sp; 1 mM compound; threshold 1 pmol eluted
[4] = tested on: #3_7 (group 1) (DNA, aptamer) ATACCAGCTTATTCAATTGGTGGTAGGATGGGCTCGATCGAGGTCTTCAGTCGGCTCGGTTTAGTTTATGTTCTCCTGTAGATAGTAAGTGCAATCT; assay: fluorescent aptamer release from capture-oligo magnetic beads, one-site fit; settings: 100 mM NaCl, 5 mM KCl, 2 mM MgCl2, 1 mM CaCl2; 20 mM Tris-HCl pH 7.6, 21 °C; capture oligo i-ODN2Sp displaced; apparent; kanamycin A 0-1.5 mM

binding [1]	binding [2]	binding [3]	KD [4] [µM]	SMILES
no	no	no	–	CC(C)NCC(O)c1ccc(NS(C)(=O)=O)cc1 (stereo not drawn)
no	no	no	–	Cc1cc(NS(=O)(=O)c2ccc(N)cc2)no1
no	no	no	–	NC(=O)NS(=O)(=O)c1ccc(N)cc1
no	–	yes	24	NC[C@H]1O[C@H](O[C@H]2[C@H](O)[C@@H](O[C@H]3O[C@H](CO)[C@@H](O)[C@H](N)[C@H]3O)[C@H](N)C[C@@H]2N)[C@H](O)[C@@H](O)[C@@H]1O
